Measurements as given in patent publication US12421218B2, “Substituted pyrazine-carboxamide derivatives” (Boehringer Ingelheim International GmbH, priority 2022, dated 2025).

Molecular target: human metabotropic Glutamate 4 receptor (mGluR4) (Homo sapiens (Human), UniProt Q14833)
Assay: Assay A: In vitro testing of mGluR4 potency (cAMP HTRF, glutamate/forskolin stimulated)
Format: cell-based
Details: HEK293 cells overexpressing human mGluR4; 10 uM L-glutamic acid, 1 uM forskolin
Experimental: A. In Vitro Testing of mGluR4 Potency
The in vitro activity of the compounds according to the invention may be investigated as follows:
The HEK293 cell overexpressing the human metabotropic Glutamate 4 receptor are thawed at 37° C. and immediately diluted with cell culture medium. After centrifugation, the cell pellet is re-suspended in medium and then distributed from a stirred spinner flask into the wells of the assay plate. The plates are incubated for one hour at room temperature before they are incubated for 24 hours at 37° C./5% CO2. After washing the cells in the plate three times with 80 uL HBSS/HEPES buffer (10 uL buffer remained in the wells after washing), 5 uL per well of compounds diluted in HBSS/HEPES buffer containing 0.2% BSA (final concentration: 0.1%) and 1 mM IBMX (final concentration: 0.5 mM) are added to the wells of the assay plate. Thereafter 5 uL per well of L-Glutamic acid (final concentration: 10 uM), forskolin (final concentration: 1 uM) and 1 mM IBMX (final concentration: 0.5 mM) dissolved in HBSS/HEPES buffer containing 0.2% BSA (final concentration: 0.1%) are added to the assay plate (final DMSO concentration: 1%). […] The emission at 615 nm and 665 nm (Excitation wavelength: 320 nm) are measured on the EnVision™ reader (PerkinElmer). The ratio between the emission at 665 nm and 615 is calculated by the reader. […]

human metabotropic Glutamate 4 receptor (mGluR4), sequence (Q14833 33-912): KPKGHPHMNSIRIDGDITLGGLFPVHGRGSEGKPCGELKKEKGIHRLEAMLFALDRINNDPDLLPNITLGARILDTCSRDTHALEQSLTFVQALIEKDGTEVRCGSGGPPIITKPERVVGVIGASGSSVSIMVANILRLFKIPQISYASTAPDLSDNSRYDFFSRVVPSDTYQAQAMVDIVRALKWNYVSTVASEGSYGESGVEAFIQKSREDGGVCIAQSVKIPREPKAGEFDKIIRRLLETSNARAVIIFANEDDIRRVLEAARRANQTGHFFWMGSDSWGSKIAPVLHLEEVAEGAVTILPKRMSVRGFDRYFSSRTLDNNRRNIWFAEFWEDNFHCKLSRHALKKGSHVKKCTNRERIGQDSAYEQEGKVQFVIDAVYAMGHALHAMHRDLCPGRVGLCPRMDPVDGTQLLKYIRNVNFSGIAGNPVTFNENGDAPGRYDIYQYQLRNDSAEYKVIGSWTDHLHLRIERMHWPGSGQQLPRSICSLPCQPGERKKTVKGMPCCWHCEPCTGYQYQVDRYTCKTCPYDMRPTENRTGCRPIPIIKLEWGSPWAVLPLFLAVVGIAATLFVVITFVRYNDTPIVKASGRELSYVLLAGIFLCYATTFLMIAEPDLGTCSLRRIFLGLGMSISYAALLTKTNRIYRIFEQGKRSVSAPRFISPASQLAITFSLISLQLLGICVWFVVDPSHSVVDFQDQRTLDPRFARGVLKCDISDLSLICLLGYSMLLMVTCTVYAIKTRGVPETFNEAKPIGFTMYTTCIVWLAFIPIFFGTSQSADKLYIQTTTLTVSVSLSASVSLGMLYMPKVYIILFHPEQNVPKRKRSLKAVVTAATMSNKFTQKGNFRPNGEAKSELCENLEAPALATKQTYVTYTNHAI

## CCn1c([C@@H](NC(=O)c2cnc(C(F)F)cn2)C(C)C)nc2cc(F)ccc21 [Example 59, 5-(difluoromethyl)-N-[(1S)-1-(1-ethyl-5-fluoro-1H-1,3-benzodiazol-2-yl)-2-methylpropyl]pyrazine-2-carboxamide]
  IC50: 4 nM
